Consider one compound from US20220110902A1, “Methods of treating amyloid-beta peptide diseases” (Ecole Polytechnique Federale de Lausanne, priority 2016, published 2022).

The subject of assay [1] is APP/PSEN1 AD mice. The assay can be described thus: NR treatment of APP/PSEN1 AD mice: cortex plaques, MSR, Oxphos proteins. The format is in vivo, mouse. The conditions noted are these: NR 400 mg/kg/day for 10 weeks. The procedure:
Young (1 month old) and aged (20-24 months old) C57BL/6JRj mice were purchased from Janvier Labs. APP/PSEN1 mice (Tg(APPswe,PSEN1dE9)85Dbo/Mmjax) were purchased from JAX. C57BL/6JR mice were fed with pellets containing vehicle or NR (400 mg/kg/day) for 6-8 weeks, while APP/PSEN1 mice were fed NR pellets for 10 weeks, starting at the age of 4 months. The pellets were prepared by mixing powdered chow diet (20165, Harlan Laboratories) with water or with NR dissolved in water. Pellets were dried under a laminar flow hood for 48 hours. Mice were housed by groups of 2 to 5 animals per cage and randomized to 7-8 animals per experimental group according to their body weight. No blinding was used during the experiment procedures. Mouse: Total RNA was extracted from tissues using TriPure RNA isolation reagent (Roche) according to the product manual. Expression of selected genes was analyzed using the LightCycler480 system (Roche) and LightCycler® 480 SYBR Green I Master reagent (Roche). The beta-2-Microglobulin B2m gene was used as housekeeping reference. Mouse: Frozen cortex tissue samples were lysed by mechanical homogenization with RIPA buffer containing protease and phosphatase inhibitors, and analyzed by SDS-PAGE and western blot. Subsequently, the concentration of extracted protein was determined by using the Bio-Rad Protein Assay. Proteins were detected using the following antibodies: HSP60 (Enzo Life Science), CLPP (Sigma), anti-GAPDH (14C10) (Cell Signaling), LONP1 (Sigma), PINK1 (Novus Biologicals), LC3 A/B (Cell Signaling), SDHB (Oxphos cocktail, Abcam), MTCO1 (Abcam), Ubiquitin (Enzo), P62 (BD Transduction Laboratories), Phopsho P62 (Cell Signaling), VDAC (Abcam), β-Amyloid, 17-24 (4G8) (BioLegend). In addition to the housekeeping proteins, loading was monitored by Ponceau Red to ensure a homogeneous loading. […] Pixel intensity was quantified by using ImageJ software. […] Quantitative analysis of the immunofluorescence data was carried out by histogram analysis of the fluorescence intensity at each pixel across the images using Image J (Fiji; National Institutes of Health). […]

Assay [2] has as its system old C57BL/6J mice. The assay can be described thus: NR treatment of aged C57BL/6J mice: muscle amyloid, Oxphos proteins, MSR. The assay is classed as in vivo, mouse. The procedure:
Young (1 month old) and aged (20-24 months old) C57BL/6JRj mice were purchased from Janvier Labs. APP/PSEN1 mice (Tg(APPswe,PSEN1dE9)85Dbo/Mmjax) were purchased from JAX. C57BL/6JR mice were fed with pellets containing vehicle or NR (400 mg/kg/day) for 6-8 weeks, while APP/PSEN1 mice were fed NR pellets for 10 weeks, starting at the age of 4 months. The pellets were prepared by mixing powdered chow diet (20165, Harlan Laboratories) with water or with NR dissolved in water. Pellets were dried under a laminar flow hood for 48 hours. Mice were housed by groups of 2 to 5 animals per cage and randomized to 7-8 animals per experimental group according to their body weight. No blinding was used during the experiment procedures. Mouse: Total RNA was extracted from tissues using TriPure RNA isolation reagent (Roche) according to the product manual. Expression of selected genes was analyzed using the LightCycler480 system (Roche) and LightCycler® 480 SYBR Green I Master reagent (Roche). The beta-2-Microglobulin B2m gene was used as housekeeping reference. Mouse: Frozen cortex tissue samples were lysed by mechanical homogenization with RIPA buffer containing protease and phosphatase inhibitors, and analyzed by SDS-PAGE and western blot. Subsequently, the concentration of extracted protein was determined by using the Bio-Rad Protein Assay. Proteins were detected using the following antibodies: HSP60 (Enzo Life Science), CLPP (Sigma), anti-GAPDH (14C10) (Cell Signaling), LONP1 (Sigma), PINK1 (Novus Biologicals), LC3 A/B (Cell Signaling), SDHB (Oxphos cocktail, Abcam), MTCO1 (Abcam), Ubiquitin (Enzo), P62 (BD Transduction Laboratories), Phopsho P62 (Cell Signaling), VDAC (Abcam), β-Amyloid, 17-24 (4G8) (BioLegend). In addition to the housekeeping proteins, loading was monitored by Ponceau Red to ensure a homogeneous loading. Antibody detection reactions for all the immunoblot experiments were developed by enhanced chemiluminescence (Advansta) and imaged using the c300 imaging system (Azure Biosystems). Pixel intensity was quantified by using ImageJ software. […]

In the case of `NC(=O)c1ccc[n+]([C@@H]2O[C@H](CO)[C@@H](O)[C@H]2O)c1` [NR, Nicotinamide Riboside triflate], in assay [1], the “MSR signature in cortex” value is “induced” and the “Oxphos protein levels in cortex” value was “induced”. In addition, the “Aβ deposits (plaques) in cortex, Thioflavin S” value in assay [1] (starting at 4 months of age) is listed as “robustly reduced”. The “SDHB and MTCO1 protein levels in muscle” value in assay [2] (aged mice, NR 400 mg/kg/day for 6-8 weeks) was “partially restoring”. In addition, the “A11- and 4G8 positive amyloid-like deposits in TA and forelimbs muscle” value in assay [2] (old mice, NR 400 mg/kg/day in pellets for 6-8 weeks) is “marked reduction”. Besides, in assay [2] (quadriceps, NR 400 mg/kg/day for 6-8 weeks), the “expression of MSR signature genes in muscle” value was “increasing”.
